Assay results published in PubChem BioAssay AID248 (DTP/NCI, 2004).
Where “and” joins values, the source holds several entries; their conditions need not be identical. Identical values can stand only once. Toxic doses and inconclusive results are not listed. Cut-off read from the data, not from the text of the source: active = T/C of 150% or more; inactive = T/C below 125%.

Tested on: L1210 leukemia ip in BDF1 mice, survival T/C
Test: NCI In Vivo Anticancer Drug Screen. Data for tumor model L1210 Leukemia (intraperitoneal) in B6D2F1 (BDF1) mice
Conditions: higher = longer survival
In short: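 Tumor cells were implanted, animals were treated, and survival was followed. The result divides the treated measurement by the vehicle-control measurement.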

[1] = endpoint: mean survival time, dose: 100.0 mg/kg/injection, schedule: Q01DX001 (ip), vehicle: saline
[2] = endpoint: mean survival time, dose: 200.0 mg/kg/injection, schedule: Q01DX001 (ip), vehicle: saline
[3] = endpoint: mean survival time, dose: 400.0 mg/kg/injection, schedule: Q01DX001 (ip), vehicle: saline
[4] = endpoint: mean survival time, dose: 100.0 mg/kg/injection, schedule: Q01DX009 (ip), vehicle: saline with Tween-80
[5] = endpoint: mean survival time, dose: 200.0 mg/kg/injection, schedule: Q01DX009 (ip), vehicle: saline with Tween-80
[6] = endpoint: mean survival time, dose: 100.0 mg/kg/injection, schedule: Q01DX009 (ip), vehicle: saline
[7] = endpoint: mean survival time, dose: 100.0 mg/kg/injection, schedule: Q04DX003 (ip), vehicle: Klucel (hydroxypropylcellulose) (HPC)
[8] = endpoint: mean survival time, dose: 200.0 mg/kg/injection, schedule: Q01DX009 (ip), vehicle: saline
[9] = endpoint: mean survival time, dose: 200.0 mg/kg/injection, schedule: Q04DX003 (ip), vehicle: Klucel (hydroxypropylcellulose) (HPC)
[10] = endpoint: mean survival time, dose: 400.0 mg/kg/injection, schedule: Q01DX009 (ip), vehicle: saline
[11] = endpoint: mean survival time, dose: 400.0 mg/kg/injection, schedule: Q04DX003 (ip), vehicle: Klucel (hydroxypropylcellulose) (HPC)
[12] = endpoint: mean survival time, dose: 100.0 mg/kg/injection, schedule: Q01DX001 (ip), vehicle: Klucel (hydroxypropylcellulose) (HPC)
[13] = endpoint: mean survival time, dose: 200.0 mg/kg/injection, schedule: Q01DX001 (ip), vehicle: Klucel (hydroxypropylcellulose) (HPC)
[14] = endpoint: mean survival time, dose: 400.0 mg/kg/injection, schedule: Q01DX009 (ip), vehicle: saline with Tween-80
[15] = endpoint: mean survival time, dose: 100.0 mg/kg/injection, schedule: Q01DX009 (ip), vehicle: Klucel (hydroxypropylcellulose) (HPC)
[16] = endpoint: mean survival time, dose: 200.0 mg/kg/injection, schedule: Q01DX009 (ip), vehicle: Klucel (hydroxypropylcellulose) (HPC)
[17] = endpoint: mean survival time, dose: 400.0 mg/kg/injection, schedule: Q01DX009 (ip), vehicle: Klucel (hydroxypropylcellulose) (HPC)
[18] = endpoint: mean survival time, dose: 100.0 mg/kg/injection, schedule: Q04DX003 (ip), vehicle: saline with Tween-80
[19] = endpoint: mean survival time, dose: 200.0 mg/kg/injection, schedule: Q04DX003 (ip), vehicle: saline with Tween-80
[20] = endpoint: mean survival time, dose: 400.0 mg/kg/injection, schedule: Q04DX003 (ip), vehicle: saline with Tween-80

Measured: T/C

CCOC(=O)/C(=C\C(C(=O)OCC)C(=O)OCC)CC
inactive: [1] 106 % of control | [2] 103 % of control | [3] 95 % of control

CCCCC(C(=O)O)(c1ccccc1)c1ccccc1
inactive: endpoint: mean survival time, dose: 75.0 mg/kg/injection, schedule: Q04DX002 (ip), vehicle: gum acacia 96 % of control | endpoint: mean survival time, dose: 150.0 mg/kg/injection, schedule: Q04DX002 (ip), vehicle: gum acacia 107 % of control

CC(O)CC(C)(C)c1ccccc1 (stereo unspecified)
inactive: endpoint: mean survival time, dose: 50.0 mg/kg/injection, schedule: Q01DX009 (ip), vehicle: saline with Tween-80 93 % of control | [4] 93 % of control | [5] 89 % of control

CC(=O)OCCCCBr
inactive: [6] 100 % of control | [7] 98 % of control | [8] 98 % of control | [9] 91 % of control | [10] 98 % of control | [11] 94 % of control

CCNC(=NC)c1ccc(NC(=O)c2ccc(C(=O)Nc3ccc(C(=NC)NCC)cc3)cc2)cc1
inactive: endpoint: mean survival time, dose: 1.3 mg/kg/injection, schedule: Q01DX Z (ip), vehicle: carboxymethylcellulose (CMC) 98 % of control | endpoint: mean survival time, dose: 1.9 mg/kg/injection, schedule: Q01DX Z (ip), vehicle: carboxymethylcellulose (CMC) 96 % of control | endpoint: mean survival time, dose: 4.4 mg/kg/injection, schedule: Q01DX Z (ip), vehicle: carboxymethylcellulose (CMC) 119 % of control | endpoint: mean survival time, dose: 6.6 mg/kg/injection, schedule: Q01DX Z (ip), vehicle: carboxymethylcellulose (CMC) 116 % of control | endpoint: mean survival time, dose: 10.0 mg/kg/injection, schedule: Q01DX Z (ip), vehicle: carboxymethylcellulose (CMC) 110 % of control | endpoint: mean survival time, dose: 15.0 mg/kg/injection, schedule: Q01DX Z (ip), vehicle: carboxymethylcellulose (CMC) 98 % of control
active: endpoint: mean survival time, dose: 2.9 mg/kg/injection, schedule: Q01DX Z (ip), vehicle: carboxymethylcellulose (CMC) 153 % of control

CC1OC(O[C@@H]2C=C3CC[C@@H]4[C@H](CC[C@]5(C)[C@@H](c6ccc(=O)oc6)CC[C@]45O)[C@@]3(C)CC2)C(O)C(O)C1O (stereo partly specified)
inactive: endpoint: mean survival time, dose: 10.0 mg/kg/injection, schedule: Q01DX001 (ip), vehicle: saline 101 % of control

Nc1ccn(C2CC(O)C(CO)O2)c(=O)n1 (stereo unspecified)
inactive: endpoint: median survival time, dose: 75.0 mg/kg/injection, schedule: Q01DX001 (ip), vehicle: other 100 % of control and 101 % of control | endpoint: median survival time, dose: 150.0 mg/kg/injection, schedule: Q01DX001 (ip), vehicle: other 99 % of control and 100 % of control

CCOC(=O)CCC(NC(=O)c1cc(Cl)c(N(C)S(=O)(=O)c2ccc(C)cc2)cc1Cl)C(=O)OCC (stereo unspecified)
inactive: [12] 107 % of control | [4] 94 % of control | [13] 108 % of control | [5] 97 % of control | endpoint: mean survival time, dose: 400.0 mg/kg/injection, schedule: Q01DX001 (ip), vehicle: Klucel (hydroxypropylcellulose) (HPC) 102 % of control | [14] 94 % of control

BrCCC[CH2][Pb]([c]1ccccc1)([c]1ccccc1)[c]1ccccc1
inactive: endpoint: mean survival time, dose: 50.0 mg/kg/injection, schedule: Q01DX001 (ip), vehicle: carboxymethylcellulose (CMC) 102 % of control | endpoint: mean survival time, dose: 100.0 mg/kg/injection, schedule: Q01DX001 (ip), vehicle: carboxymethylcellulose (CMC) 105 % of control | endpoint: mean survival time, dose: 200.0 mg/kg/injection, schedule: Q01DX001 (ip), vehicle: carboxymethylcellulose (CMC) 111 % of control | endpoint: mean survival time, dose: 400.0 mg/kg/injection, schedule: Q01DX001 (ip), vehicle: carboxymethylcellulose (CMC) 100 % of control

O=S(OCc1ccccc1)OCc1ccccc1
inactive: [6] 98 % of control | [8] 104 % of control | [10] 91 % of control

CC(C)(C)C1=NN=C(C(C)(C)C)CSC1
inactive: [15] 95 % of control and 100 % of control | endpoint: mean survival time, dose: 100.0 mg/kg/injection, schedule: Q04DX002 (ip), vehicle: Klucel (hydroxypropylcellulose) (HPC) 98 % of control and 103 % of control | [7] 101 % of control | [16] 101 % of control and 113 % of control | endpoint: mean survival time, dose: 200.0 mg/kg/injection, schedule: Q04DX002 (ip), vehicle: Klucel (hydroxypropylcellulose) (HPC) 103 % of control and 105 % of control | [9] 97 % of control | [17] 101 % of control and 92 % of control | endpoint: mean survival time, dose: 400.0 mg/kg/injection, schedule: Q04DX002 (ip), vehicle: Klucel (hydroxypropylcellulose) (HPC) 98 % of control and 105 % of control | [11] 95 % of control

CC1CCCCN1 (stereo unspecified)
inactive: endpoint: mean survival time, dose: 100.0 mg/kg/injection, schedule: Q04DX002 (ip), vehicle: saline 105 % of control | endpoint: mean survival time, dose: 200.0 mg/kg/injection, schedule: Q04DX002 (ip), vehicle: saline 94 % of control | endpoint: mean survival time, dose: 400.0 mg/kg/injection, schedule: Q04DX002 (ip), vehicle: saline 112 % of control

O=c1oc2ccc3ccccc3c2c(-c2ccc(O)cc2)c1-c1ccccc1
inactive: endpoint: mean survival time, dose: 100.0 mg/kg/injection, schedule: Q01DX001 (ip), vehicle: saline with Tween-80 89 % of control | endpoint: mean survival time, dose: 200.0 mg/kg/injection, schedule: Q01DX001 (ip), vehicle: saline with Tween-80 92 % of control | endpoint: mean survival time, dose: 400.0 mg/kg/injection, schedule: Q01DX001 (ip), vehicle: saline with Tween-80 92 % of control

COC(C)CSP(SCC(C)OC)SCC(C)OC (stereo unspecified)
inactive: endpoint: mean survival time, dose: 25.0 mg/kg/injection, schedule: Q01DX009 (ip), vehicle: Klucel (hydroxypropylcellulose) (HPC) 96 % of control | endpoint: mean survival time, dose: 50.0 mg/kg/injection, schedule: Q01DX009 (ip), vehicle: Klucel (hydroxypropylcellulose) (HPC) 99 % of control | [15] 99 % of control

S=C(Cc1ccccc1)N1CCCCC1
inactive: [15] 108 % of control | [7] 100 % of control | [16] 98 % of control | [9] 101 % of control | [17] 95 % of control

C=C(C(=C)C(=O)O)C(=O)O
inactive: [1] 101 % of control | [6] 98 % of control | [2] 101 % of control | [8] 107 % of control | [3] 98 % of control | [10] 102 % of control

O=C(O)CNC(=O)/C(=C\c1[nH]c(=O)[nH]c(=O)c1Br)NC(=O)c1ccccc1
inactive: [4] 92 % of control | [18] 104 % of control | [5] 91 % of control | [19] 104 % of control | [14] 96 % of control | [20] 107 % of control

CC(=O)CC(=O)Nc1ccccc1C
inactive: endpoint: mean survival time, dose: 50.0 mg/kg/injection, schedule: Q01DX001 (ip), vehicle: Klucel (hydroxypropylcellulose) (HPC) 100 % of control | [12] 106 % of control | [13] 106 % of control

C(=N\n1cnnc1)/c1ccc(/C=N/n2cnnc2)cc1
inactive: [4] 98 % of control | [18] 105 % of control | [5] 88 % of control | [19] 105 % of control | [14] 89 % of control | [20] 98 % of control

CCCC(CCC)=NCCCO
inactive: endpoint: mean survival time, dose: 75.0 mg/kg/injection, schedule: Q01DX001 (ip), vehicle: carboxymethylcellulose (CMC) 96 % of control | endpoint: mean survival time, dose: 150.0 mg/kg/injection, schedule: Q01DX001 (ip), vehicle: carboxymethylcellulose (CMC) 102 % of control

Cc1ccc(/C=C2/COC/C(=C\c3ccc(C)cc3)C2=O)cc1
inactive: endpoint: mean survival time, dose: 6.0 mg/kg/injection, schedule: Q01DX009 (ip), vehicle: saline 96 % of control | endpoint: mean survival time, dose: 12.0 mg/kg/injection, schedule: Q01DX001 (ip), vehicle: saline 88 % of control | endpoint: mean survival time, dose: 12.0 mg/kg/injection, schedule: Q01DX009 (ip), vehicle: saline 94 % of control | endpoint: mean survival time, dose: 25.0 mg/kg/injection, schedule: Q01DX001 (ip), vehicle: saline 93 % of control | endpoint: mean survival time, dose: 25.0 mg/kg/injection, schedule: Q01DX009 (ip), vehicle: saline 109 % of control

Cc1ccc(S(=O)(=O)OCC2OC(n3cnc4c(=O)[nH]cnc43)C3OC(C)(C)OC23)cc1 (stereo unspecified)
inactive: endpoint: mean survival time, dose: 100.0 mg/kg/injection, schedule: Q01DX005 (ip), vehicle: saline 103 % of control | endpoint: mean survival time, dose: 200.0 mg/kg/injection, schedule: Q01DX005 (ip), vehicle: saline 103 % of control

CCC(C(N)=O)N1C(=O)C2C3CCC(C3)C2C1=O (stereo unspecified)
inactive: [18] 90 % of control | endpoint: mean survival time, dose: 100.0 mg/kg/injection, schedule: Q04DX003 (ip), vehicle: saline 107 % of control | [19] 100 % of control | endpoint: mean survival time, dose: 200.0 mg/kg/injection, schedule: Q04DX003 (ip), vehicle: saline 107 % of control | [20] 100 % of control | endpoint: mean survival time, dose: 400.0 mg/kg/injection, schedule: Q04DX003 (ip), vehicle: saline 98 % of control
